Data: patent US20110124501A1, “Active compound combinations” (Bayer CropScience AG, priority 2009, published 2011)
Where “and” joins values, the source holds several entries; their conditions need not be identical. Equal values may be shown once. Where a name gives a salt, the structure may show the parent alone. Read-outs that look alike come from different tables or passages of the source.

Legend:
[1] = tested on: Leptosphaeria nodorum; experiment: Leptosphaeria nodorum test (wheat)/preventive; type: in vivo; conditions: preventive, evaluated 8 days after inoculation
[2] = tested on: Septoria tritici; experiment: Septoria tritici-test (wheat)/preventive; type: in vivo; conditions: preventive, evaluated 21 days after inoculation
[3] = tested on: Phytophthora infestans; type: in vivo
[4] = tested on: Botrytis cinerea; experiment: Botrytis test (beans)/preventive
Procedure: Botrytis Test (Beans)/Preventive
(§1) • Solvent: 24.5 parts by weight of acetone • 24.5 parts by weight of dimethylacetamide • Emulsifier: 1 part by weight of alkylaryl polyglycol ether
After the spray coating has dried on, 2 small pieces of agar covered with growth of Botrytis cinerea are placed on each leaf. The inoculated plants are placed in a darkened chamber at 20° C. and a relative atmospheric humidity of 100%.
2 days after the inoculation, the size of the lesions on the leaves is evaluated.

[5] = tested on: Sphaerotheca fuliginea; experiment: Sphaerotheca test (cucumbers)/preventive; type: in vivo
[6] = tested on: Venturia inaequalis; experiment: Venturia test (apples)/preventive
Procedure: Venturia Test (Apples)/Preventive
as §1
After the spray coating has dried on, the plants are inoculated with an aqueous conidia suspension of the causal agent of apple scab (Venturia inaequalis) and then remain for 1 day in an incubation cabinet at approximately 20° C. and a relative atmospheric humidity of 100%.
The plants are then placed in a greenhouse at approximately 21° C. and a relative atmospheric humidity of approximately 90%.
The test is evaluated 10 days after the inoculation.

[7] = tested on: Pyrenophora teres; experiment: Pyrenophora teres-test (barley)/preventive; type: in vivo; conditions: preventive, evaluated 8 days after inoculation
[8] = tested on: Alternaria solani; experiment: Alternaria test (tomatoes)/preventive; type: in vivo
[9] = tested on: Blumeria graminis fsp. hordei; experiment: Blumeria test (barley)/preventive; type: in vivo
Source text: After the spray coating has been dried, the plants are dusted with spores of Blumeria graminis fsp. hordei.

[10] = tested on: Plasmopara viticola; experiment: Plasmopara test (grapevines)/preventive; type: in vivo
[11] = tested on: Puccinia triticina; experiment: Puccinia triticina-test (wheat)/preventive; type: in vivo; conditions: preventive, evaluated 8 days after inoculation

Fc1ccc([C@]2(Cn3cncn3)O[C@H]2c2ccccc2Cl)cc1 (racemic) [(1.12), epoxiconazole]
Efficacy in % found ([1]; 31.25 ppm a.i.): 71% | Efficacy in % found ([2]; 62.5 ppm a.i.): 71%

C[C@@]1(c2ccc(Oc3ccccc3)cc2)OC(=O)N(Nc2ccccc2)C1=O (racemic) [(3.6), famoxadone]
Efficacy in % found ([3]; application rate 0.4 ppm a.i.): 0%

CC1(C(=O)Nc2ccc(O)c(Cl)c2Cl)CCCCC1 [(1.16), fenhexamid]
Efficacy in % found ([4]; application rate 10 ppm a.i.): 0%

O=c1c2cc(F)ccc2nc(-n2cncn2)n1-c1ccc(Cl)cc1Cl [(1.19), fluquinconazole]
Efficacy in % found ([5]; application rate 1 ppm a.i.): 78% | Efficacy in % found ([1]; 31.25 ppm a.i.): 43% | Efficacy in % found ([2]; 62.5 ppm a.i.): 86%

Cn1cc(C(=O)Nc2ccc(F)cc2-c2ccc(Cl)c(Cl)c2)c(C(F)F)n1 [(2.2), bixafen]
Efficacy in % found ([6]; application rate 1 ppm a.i.): 64%

O=C(NCCc1ncc(C(F)(F)F)cc1Cl)c1ccccc1C(F)(F)F [(2.6), fluopyram]
Efficacy in % found ([6]; application rate 2 ppm a.i.): 28% | Efficacy in % found ([5]; application rate 4 ppm a.i.): 0% | Efficacy in % found ([2]; 31.25 ppm a.i.): 80% | Efficacy in % found ([7]; 31.25 ppm a.i.): 88% | Efficacy in % found ([8]; application rate 1 ppm a.i.): 55%

CC(C)C1C2CCC1c1c(NC(=O)c3cn(C)nc3C(F)F)cccc12 (stereo not drawn) [(2.10), isopyrazam]
Efficacy in % found ([6]; application rate 1 ppm a.i.): 49% | Efficacy in % found ([8]; application rate 0.5 ppm a.i.): 50%

Cc1nn(C)c(F)c1C(=O)Nc1ccccc1C(C)CC(C)C (stereo not drawn) [(2.19), penflufen]
Efficacy in % found ([9]; application rate 125 ppm a.i.): 67% and 56% | Efficacy in % found ([6]; application rate 4 ppm a.i.): 0% | Efficacy in % found ([5]; application rate 4 ppm a.i.): 0% | Efficacy in % found ([8]; application rate 1 ppm a.i.): 30%

CC(C)CC(C)c1sccc1NC(=O)c1cn(C)nc1C(F)(F)F (stereo not drawn) [(2.20), penthiopyrad]
Efficacy in % found ([6]; application rate 2 ppm a.i.): 41% | Efficacy in % found ([8]; application rate 0.5 ppm a.i.): 53%

Cn1cc(C(=O)Nc2ccccc2C2CC2C2CC2)c(C(F)F)n1 (stereo not drawn) [(2.21), sedaxane]
Efficacy in % found ([6]; application rate 2 ppm a.i.): 69% | Efficacy in % found ([8]; application rate 1 ppm a.i.): 40%

Cn1cc(C(=O)Nc2ccccc2-c2cc(F)c(F)c(F)c2)c(C(F)F)n1 [(2.45), 3-(difluoromethyl)-1-methyl-N-(3′,4′,5′-trifluorobiphenyl-2-yl)-1H-pyrazole-4-carboxamide]
Efficacy in % found ([5]; application rate 2 ppm a.i.): 30%

CO/C=C(/C(=O)OC)c1ccccc1Oc1cc(Oc2ccccc2C#N)ncn1 [(3.2), azoxystrobin]
Efficacy in % found ([5]; application rate 1 ppm a.i.): 10% | Efficacy in % found ([1]; 31.25 ppm a.i.): 67% | Efficacy in % found ([1]; 62.5 ppm a.i.): 86% | Efficacy in % found ([8]; application rate 0.25 ppm a.i.): 50%

Cc1ccc(-c2c(Cl)nc(C#N)n2S(=O)(=O)N(C)C)cc1 [(3.3), cyazofamid]
Efficacy in % found ([10]; application rate 0.4 ppm a.i.): 0%

CSC1=N[C@@](C)(c2ccccc2)C(=O)N1Nc1ccccc1 [(3.7), fenamidone]
Efficacy in % found ([3]; application rate 0.2 ppm a.i.): 0%

CO/N=C(/C1=NOCCO1)c1ccccc1Oc1ncnc(Oc2ccccc2Cl)c1F [(3.8), fluoxastrobin]
Efficacy in % found ([6]; application rate 0.5 ppm a.i.): 88% | Efficacy in % found ([1]; 31.25 ppm a.i.): 71% | Efficacy in % found ([2]; 62.5 ppm a.i.): 71% | Efficacy in % found ([8]; application rate 2 ppm a.i.): 70%

COC(=O)N(OC)c1ccccc1COc1ccn(-c2ccc(Cl)cc2)n1 [(3.13), pyraclostrobin]
Efficacy in % found ([11]; 62.5 ppm a.i.): 63% | Efficacy in % found ([5]; application rate 1 ppm a.i.): 0% | Efficacy in % found ([1]; 31.25 ppm a.i.): 57%

CON=C(C(=O)OC)c1ccccc1CON=C(C)c1cccc(C(F)(F)F)c1 [(3.17), trifloxystrobin]
Efficacy in % found ([11]; 62.5 ppm a.i.): 78% | Efficacy in % found ([5]; application rate 2 ppm a.i.): 27% | Efficacy in % found ([7]; 62.5 ppm a.i.): 75% | Efficacy in % found ([8]; application rate 2 ppm a.i.): 60%

CCC(C)(NC(=O)c1cc(Cl)c(C)c(Cl)c1)C(=O)CCl (stereo not drawn) [(4.9), zoxamide]
Efficacy in % found ([10]; application rate 0.4 ppm a.i.): 0%

N#Cc1c(Cl)c(Cl)c(Cl)c(C#N)c1Cl [(5.4), chlorothalonil]
Efficacy in % found ([6]; application rate 25 ppm a.i.): 83% | Efficacy in % found ([8]; application rate 50 ppm a.i.): 24%

O=C1c2ccccc2C(=O)N1SC(Cl)(Cl)Cl [(5.9), folpet]
Efficacy in % found ([4]; application rate 12.5 ppm a.i.): 11%

[Cl-].[Cu+2].[Cu+2].[OH-].[OH-].[OH-] [(5.15), copper oxychloride]
Efficacy in % found ([6]; application rate 50 ppm a.i.): 40% | Efficacy in % found ([8]; application rate 50 ppm a.i.): 41%

[Cu+2].[OH-].[OH-] [(5.16), copper hydroxide]
Efficacy in % found ([6]; application rate 25 ppm a.i.): 57% | Efficacy in % found ([8]; application rate 50 ppm a.i.): 47%

Cc1cc(C)nc(Nc2ccccc2)n1 [(7.7), pyrimethanil]
Efficacy in % found ([4]; application rate 50 ppm a.i.): 11%

COc1ccc(C(=CC(=O)N2CCOCC2)c2ccc(Cl)cc2)cc1OC [(9.2), dimethomorph]
Efficacy in % found ([10]; application rate 0.2 ppm a.i.): 0%

Cc1ccc(C(C)NC(=O)[C@@H](NC(=O)OC(C)C)C(C)C)cc1 (stereo partly drawn) [(9.4), iprovalicarb]
Efficacy in % found ([10]; application rate 0.4 ppm a.i.): 0%

C#CCOc1ccc(CCNC(=O)C(OCC#C)c2ccc(Cl)cc2)cc1OC (stereo not drawn) [(9.5), mandipropamid]
Efficacy in % found ([10]; application rate 0.1 ppm a.i.): 14% | Efficacy in % found ([10]; application rate 0.2 ppm a.i.): 25%

CCCOC(=O)NCCCN(C)C [(10.11), propamocarb-hydrochloride]
Efficacy in % found ([3]; application rate 10 ppm a.i.): 0%

COC(=O)[C@@H](C)N(C(=O)Cc1ccccc1)c1c(C)cccc1C [(12.2), benalaxyl-M]
Efficacy in % found ([10]; application rate 0.2 ppm a.i.): 0% | Efficacy in % found ([10]; application rate 0.4 ppm a.i.): 0%

COCC(=O)N(c1c(C)cccc1C)[C@H](C)C(=O)OC [(12.10), metalaxyl-M]
Efficacy in % found ([10]; application rate 0.4 ppm a.i.): 57%

O=[N+]([O-])c1cc(C(F)(F)F)c(Cl)c([N+](=O)[O-])c1Nc1ncc(C(F)(F)F)cc1Cl [(14.2), fluazinam]
Efficacy in % found ([3]; application rate 0.5 ppm a.i.): 0%

CCCCCCCCc1c(CC)nc2ncnn2c1N [(15.1), ametoctradin]
Efficacy in % found ([3]; application rate 0.5 ppm a.i.): 0%

CCNC(=O)NC(=O)/C(C#N)=N/OC [(15.7), cymoxanil]
Efficacy in % found ([3]; application rate 1 ppm a.i.): 0%

O=C(NCc1ncc(C(F)(F)F)cc1Cl)c1c(Cl)cccc1Cl [(15.17), fluopicolide]
Efficacy in % found ([10]; application rate 0.4 ppm a.i.): 43%

CCO[PH](=O)O [(15.20), fosetyl-Al]
Efficacy in % found ([3]; application rate 10 ppm a.i.): 3%

C#CCCOC(=O)Nc1cccc(CO/N=C(/c2ccccc2)c2nnnn2C)n1 [(15.96), but-3-yn-1-yl {6-[({[(Z)-(1-methyl-1H-tetrazol-5-yl)(phenyl)methylene]amino}oxy)methyl]pyridin-2-yl}carbamate]
Efficacy in % found ([10]; application rate 0.4 ppm a.i.): 46% | Efficacy in % found ([3]; application rate 0.2 ppm a.i.): 53%

O=C(OCc1c(F)cccc1Cl)c1csc(C2CCN(C(=O)Cn3nc(C(F)F)cc3C(F)F)CC2)n1 [(I-16)]
Efficacy in % found ([11]; 500 ppm a.i.): 13% | Efficacy in % found ([11]; 1000 ppm a.i.): 38% | Efficacy in % found ([4]; application rate 50 ppm a.i.): 0% | Efficacy in % found ([4]; application rate 200 ppm a.i.): 0% | Efficacy in % found ([10]; application rate 0.2 ppm a.i.): 29% | Efficacy in % found ([10]; application rate 0.4 ppm a.i.): 0% | Efficacy in % found ([9]; application rate 1000 ppm a.i.): 0% | Efficacy in % found ([6]; application rate 200 ppm a.i.): 33% | Efficacy in % found ([3]; application rate 0.2 ppm a.i.): 70% | Efficacy in % found ([3]; application rate 0.4 ppm a.i.): 61% and 74% | Efficacy in % found ([5]; application rate 25 ppm a.i.): 30% | Efficacy in % found ([5]; application rate 50 ppm a.i.): 30% | Efficacy in % found ([1]; 1000 ppm a.i.): 0% | Efficacy in % found ([7]; 500 ppm a.i.): 0% | Efficacy in % found ([7]; 1000 ppm a.i.): 25% and 13% | Efficacy in % found ([8]; application rate 25 ppm a.i.): 30% | Efficacy in % found ([8]; application rate 200 ppm a.i.): 47%

boscalid [(2.3)]
Efficacy in % found ([11]; 250 ppm a.i.): 38% | Efficacy in % found ([11]; 500 ppm a.i.): 56%

fenpiclonil [(13.1)]
Efficacy in % found ([1]; 500 ppm a.i.): 71% | Efficacy in % found ([7]; 500 ppm a.i.): 88%

fludioxonil [(13.2)]
Efficacy in % found ([4]; application rate 10 ppm a.i.): 15% | Efficacy in % found ([1]; 250 ppm a.i.): 43% | Efficacy in % found ([7]; 125 ppm a.i.): 88%

mancozeb [(5.19)]
Efficacy in % found ([6]; application rate 12.5 ppm a.i.): 53% | Efficacy in % found ([8]; application rate 12.5 ppm a.i.): 18% | Efficacy in % found ([8]; application rate 50 ppm a.i.): 76%

phosphorous acid and its salts [(15.62)]
Efficacy in % found ([3]; application rate 10 ppm a.i.): 19%

propiconazole [(1.40)]
Efficacy in % found ([11]; 125 ppm a.i.): 78% | Efficacy in % found ([5]; application rate 2 ppm a.i.): 78%

propineb [(5.23)]
Efficacy in % found ([8]; application rate 50 ppm a.i.): 53%

prothioconazole [(1.41)]
Efficacy in % found ([5]; application rate 0.5 ppm a.i.): 37% | Efficacy in % found ([1]; 62.5 ppm a.i.): 43% | Efficacy in % found ([2]; 125 ppm a.i.): 86%

spiroxamine [(1.46)]
Efficacy in % found ([11]; 500 ppm a.i.): 56% | Efficacy in % found ([9]; application rate 250 ppm a.i.): 94%

tebuconazole [(1.47)]
Efficacy in % found ([6]; application rate 4 ppm a.i.): 43% | Efficacy in % found ([5]; application rate 4 ppm a.i.): 67% | Efficacy in % found ([7]; 125 ppm a.i.): 38%

triadimenol [(1.51)]
Efficacy in % found ([1]; 250 ppm a.i.): 50% and 43%
